Data published in US20240083892A1 (BISICHEM CO., LTD., priority 2021, published 2024).
pIC50: −log10 of the molar value.

Key:
RIPK1 [1] = target: T1, RIPK1 (Homo sapiens, UniProt Q13546); test: Immunoblotting of TNFα induced phospho-RIPK1 (ser 166) levels; type: cell-based; settings: HMC3 cells; Z-VAD-FMK, human TNFα 20 ng/ml, SM-164 100 nM; 7 h, serum free media; read-out: Cell-base RIPK1 activity: phspho-RIPK1 (Ser166)
T1 construct: endogenous in cells; host or cells: HT-29 (KCLB 30038)
T1 sequence (Q13546 1-671): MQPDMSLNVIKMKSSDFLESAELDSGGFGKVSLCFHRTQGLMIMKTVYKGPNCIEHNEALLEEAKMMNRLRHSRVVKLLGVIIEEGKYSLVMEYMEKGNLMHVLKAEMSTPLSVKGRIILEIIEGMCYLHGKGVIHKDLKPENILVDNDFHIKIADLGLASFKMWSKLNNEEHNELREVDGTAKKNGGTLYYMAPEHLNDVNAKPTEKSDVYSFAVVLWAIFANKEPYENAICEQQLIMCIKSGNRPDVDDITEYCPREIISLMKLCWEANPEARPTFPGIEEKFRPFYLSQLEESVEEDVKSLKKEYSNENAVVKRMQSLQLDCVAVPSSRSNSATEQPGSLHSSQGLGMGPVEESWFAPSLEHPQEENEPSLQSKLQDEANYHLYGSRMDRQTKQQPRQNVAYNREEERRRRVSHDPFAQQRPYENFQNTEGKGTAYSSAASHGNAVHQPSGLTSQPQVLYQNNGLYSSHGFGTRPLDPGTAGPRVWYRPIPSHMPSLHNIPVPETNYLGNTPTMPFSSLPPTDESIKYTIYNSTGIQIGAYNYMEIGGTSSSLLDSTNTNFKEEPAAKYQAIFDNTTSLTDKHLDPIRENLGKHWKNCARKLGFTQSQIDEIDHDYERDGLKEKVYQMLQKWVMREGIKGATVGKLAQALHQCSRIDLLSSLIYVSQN
Protocol: (§1) Human colon carcinoma cell HT-29 (KCLB 30038), BV2 mouse microglial cell (cell was a kind gift from Dr. Nak-Yun Sung, Senior researcher at Korea Prime Pharmacy CO., LTD.) and human microglial cell HMC3 (ATCC® CRL-3304™). HT-29 cell was grown in Roswell Park Memorial Institute (RPMI) 1640, BV2 cell was grown in Dulbecco's Modified Eagle's Medium (DMEM) and HMC3 cell was grown in Minimum Essential Media Eagle (MEM) supplemented with 10% fetal bovine serum and 1% mixture of penicillin and streptomycin (Gibco). Cells were maintained at 37° C. in a humidified 5% CO2 atmosphere.
Biological activity of the compounds of RIPK1 inhibitor was determined by measuring their ability to inhibitor TNFα induced phospho-RIPK1 (ser 166) levels, phospho-RIPK3 levels, phospho-MLKL levels in HMC3 cells. Cells were pretreated with Z-VAD-FMK […]. After 30 min, human TNFα 20 ng/ml, SM-164 100 nM and RIPK1 inhibitor (0.1, 1, 10 nM) were treated for 7 h under serum free media. Cells were lysed with cold lysis buffer containing 25 mM HEPES pH 7.6, […] NaCl, 1% NP40, 1% sodium deoxycholate, 0.1% SDS, and protease inhibitor mixture (Bimake, Houston, USA) using sonicators. The cells were centrifuged at 15,000 rpm, 4° C. for 5 min. After protein concentration of the lysates (supernatants) was quantified using BCA assay (Thermo Fisher Scientific, Waltham, USA), lysates were mixed with LDS sample buffer and heating at […] for 10 min. (Invitrogen, California, USA). […] The membranes are placed in an image analyzer (Imagequant, LAS 500, GE Healthcare), connected to a computer which allows the image generation (software Image reader LAS 500).

RIPK1 [2] = target: T1, RIPK1; test: Cell-based necroptosis assay for RIPK1 activity (cell viability by CCK-8); settings: HT-29 cells; Z-VAD-FMK 20 μM, human TNFα 10 ng/ml, SM-164 100 nM; 24 h; read-out: Cell-base RIPK1 activity: Necroptosis
Protocol: as §1
To measure the activity of RIPK1 inhibitor in necroptotic cells, HT-29 cells were treated by control DMSO, human TNFα (Peprotech, Rocky Hill, USA), SM-164 (Biovision, California, USA) and a pan-caspase inhibitor Z-VAD-FMK (Invivogen, San Diego, USA). Cells were pretreated with Z-VAD-FMK 20 μM. After 30 min, human TNFα 10 ng/ml, SM-164 100 nM and RIPK1 Inhibitor (0.0001, 0.001, 0.01, 0.02, 0.05, 0.1, 1, 10 uM) were treated for 24 h. Cell viability was measured by Cell Counting Kit 8 (CCK-8) (Dong-in, Seoul, Korea).

Compound	pIC50 (RIPK1 [1])	pIC50 (RIPK1 [2])
CN1C(=O)[C@@H](NC(=O)n2cc(Cc3cccc(F)c3)cn2)COc2ccc(OCC(=O)N3CCC(C)(C)CC3)cc21 [Example 37, (S)—N-(7-(2-(4,4-dimethylpiperidin-1-yl)-2-oxoethoxy)-5-methyl-4-oxo-2,3,4,5-tetrahydrobenzo[b][1,4]oxazepin-3-yl)-4-(3-fluorobenzyl)-1H-pyrazole-1-carboxamide]	> 8.00	> 8.00
CN1C(=O)[C@@H](NC(=O)n2cc(Cc3cccc(F)c3)cn2)COc2ccc(OCC(=O)N3CCC(F)(F)CC3)cc21 [Example 38, (S)—N-(7-(2-(4,4-difluoropiperidin-1-yl)-2-oxoethoxy)-5-methyl-4-oxo-2,3,4,5-tetrahydrobenzo[b][1,4]oxazepin-3-yl)-4-(3-fluorobenzyl)-1H-pyrazole-1-carboxamide]	> 8.00	> 8.00
CN1C(=O)[C@@H](NC(=O)n2cc(Cc3cccc(F)c3)cn2)COc2ccc(OCC(=O)N3CCOCC3)cc21 [Example 39, (S)-4-(3-fluorobenzyl)-N-(5-methyl-7-(2-morpholino-2-oxoethoxy)-4-oxo-2,3,4,5-tetrahydrobenzo[b][1,4]oxazepin-3-yl)-1H-pyrazole-1-carboxamide]	> 8.00	> 8.00
CN1C(=O)[C@@H](NC(=O)n2cc(Cc3cccc(F)c3)cn2)COc2ccc(OCC(=O)N3CCC(O)CC3)cc21 [Example 40, (S)-4-(3-fluorobenzyl)-N-(7-(2-(4-hydroxypiperidin-1-yl)-2-oxoethoxy)-5-methyl-4-oxo-2,3,4,5-tetrahydrobenzo[b][1,4]oxazepin-3-yl)-1H-pyrazole-1-carboxamide]	> 8.00	> 8.00
CN1C(=O)[C@@H](NC(=O)n2cc(Cc3cccc(F)c3)cn2)COc2ccc(OCC(=O)N3CCC(C)(O)CC3)cc21 [Example 41, (S)-4-(3-fluorobenzyl)-N-(7-(2-(4-hydroxy-4-methylpiperidin-1-yl)-2-oxoethoxy)-5-methyl-4-oxo-2,3,4,5-tetrahydrobenzo[b][1,4]oxazepin-3-yl)-1H-pyrazole-1-carboxamide]	> 8.00	> 8.00
CN1C(=O)[C@@H](NC(=O)n2cc(Cc3cccc(F)c3)cn2)COc2ccc(OC(C)(C)C(=O)N3CCC(C)(O)CC3)cc21 [Example 42, (S)-4-(3-fluorobenzyl)-N-(7-((1-(4-hydroxy-4-methylpiperidin-1-yl)-2-methyl-1-oxopropan-2-yl)oxy)-5-methyl-4-oxo-2,3,4,5-tetrahydrobenzo[b][1,4]oxazepin-3-yl)-1H-pyrazole-1-carboxamide]	7.30 to 8.00	7.30 to 8.00
CN1C(=O)[C@@H](NC(=O)n2cc(Cc3cccc(F)c3)cn2)COc2ccc(OCC(=O)N3CCC(C(C)(C)O)CC3)cc21 [Example 43, (S)-4-(3-fluorobenzyl)-N-(7-(2-(4-(2-hydroxypropan-2-yl)piperidin-1-yl)-2-oxoethoxy)-5-methyl-4-oxo-2,3,4,5-tetrahydrobenzo[b][1,4]oxazepin-3-yl)-1H-pyrazole-1-carboxamide]	> 8.00	> 8.00
CN1C(=O)[C@@H](NC(=O)n2cc(Cc3cccc(F)c3)cn2)COc2ccc(OCC(=O)N3CCCC3)cc21 [Example 44, (S)-4-(3-fluorobenzyl)-N-(5-methyl-4-oxo-7-(2-oxo-2-(pyrrolidin-1-yl)ethoxy)-2,3,4,5-tetrahydrobenzo[b][1,4]oxazepin-3-yl)-1H-pyrazole-1-carboxamide]	> 8.00	> 8.00
CN1C(=O)[C@@H](NC(=O)n2cc(Cc3cccc(F)c3)cn2)COc2ccc(OCC(=O)N3CCC(F)(F)C3)cc21 [Example 45, (S)—N-(7-(2-(3,3-difluoropyrrolidin-1-yl)-2-oxoethoxy)-5-methyl-4-oxo-2,3,4,5-tetrahydrobenzo[b][1,4]oxazepin-3-yl)-4-(3-fluorobenzyl)-1H-pyrazole-1-carboxamide]	> 8.00	> 8.00
CN1C(=O)[C@@H](NC(=O)n2cc(Cc3cccc(F)c3)cn2)COc2ccc(OCC(=O)N3CC[C@H](O)C3)cc21 [Example 46, 4-(3-fluorobenzyl)-N—((S)-7-(2-((S)-3-hydroxypyrrolidin-1-yl)-2-oxoethoxy)-5-methyl-4-oxo-2,3,4,5-tetrahydrobenzo[b][1,4]oxazepin-3-yl)-1H-pyrazole-1-carboxamide]	> 8.00	7.30 to 8.00
CN1C(=O)[C@@H](NC(=O)n2cc(Cc3cccc(F)c3)cn2)COc2ccc(OCC(=O)N3CC[C@@H](O)C3)cc21 [Example 47, 4-(3-fluorobenzyl)-N—((S)-7-(2-((R)-3-hydroxypyrrolidin-1-yl)-2-oxoethoxy)-5-methyl-4-oxo-2,3,4,5-tetrahydrobenzo[b][1,4]oxazepin-3-yl)-1H-pyrazole-1-carboxamide]	> 8.00	> 8.00
CN1C(=O)[C@@H](NC(=O)n2cc(Cc3cccc(F)c3)cn2)COc2ccc(OCC(=O)N3CCC(C(C)(C)O)C3)cc21 (stereo partly drawn) [Example 48, 4-(3-fluorobenzyl)-N-((3S)-7-(2-(3-(2-hydroxypropan-2-yl)pyrrolidin-1-yl)-2-oxoethoxy)-5-methyl-4-oxo-2,3,4,5-tetrahydrobenzo[b][1,4]oxazepin-3-yl)-1H-pyrazole-1-carboxamide]	> 8.00	> 8.00
CN1C(=O)[C@@H](NC(=O)n2cc(Cc3cccc(F)c3)cn2)COc2ccc(OCC(=O)N3CC(C)(O)C3)cc21 [Example 49, (S)-4-(3-fluorobenzyl)-N-(7-(2-(3-hydroxy-3-methylazetidin-1-yl)-2-oxoethoxy)-5-methyl-4-oxo-2,3,4,5-tetrahydrobenzo[b][1,4]oxazepin-3-yl)-1H-pyrazole-1-carboxamide]	> 8.00	> 8.00
CN1C(=O)[C@@H](NC(=O)n2cc(Cc3cccc(F)c3)cn2)COc2ccc(OCC(=O)N3CC(O)C3)cc21 [Example 50, (S)-4-(3-fluorobenzyl)-N-(7-(2-(3-hydroxyazetidin-1-yl)-2-oxoethoxy)-5-methyl-4-oxo-2,3,4,5-tetrahydrobenzo[b][1,4]oxazepin-3-yl)-1H-pyrazole-1-carboxamide]	> 8.00	> 8.00
CN1C(=O)[C@@H](NC(=O)n2cc(Cc3cccc(F)c3)cn2)COc2ccc(OCC(=O)NC3CC3)cc21 [Example 51, (S)—N-(7-(2-(cyclopropylamino)-2-oxoethoxy)-5-methyl-4-oxo-2,3,4,5-tetrahydrobenzo[b][1,4]oxazepin-3-yl)-4-(3-fluorobenzyl)-1H-pyrazole-1-carboxamide]	> 8.00	> 8.00
CCN(CC(C)(C)O)C(=O)COc1ccc2c(c1)N(C)C(=O)[C@@H](NC(=O)n1cc(Cc3cccc(F)c3)cn1)CO2 [Example 53, (S)—N-(7-(2-(ethyl(2-hydroxy-2-methylpropyl)amino)-2-oxoethoxy)-5-methyl-4-oxo-2,3,4,5-tetrahydrobenzo[b][1,4]oxazepin-3-yl)-4-(3-fluorobenzyl)-1H-pyrazole-1-carboxamide]	> 8.00	> 8.00
